Experiments:
Assay in all cases: KINOMEscan kinase binding assay (Eurofins/DiscoveRx), % Ctrl
[1] = biological target: T1, kinases (Homo sapiens, UniProt P00519); settings: 1 μM; for % Ctrl, ABL1-nonphosphorylated: target ABL1-nonphosphorylated; for % Ctrl, ABL1-phosphorylated: target ABL1-phosphorylated
T1 construct: purchased Eurofins/DiscoveRx; host or cells: E. coli BL21-derived host (T7 phage display) for most kinases; HEK-293 for the rest
How it was run: (§1)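 Read-out is qPCR of kinase eluted from ligand-coated streptavidin beads after 1 h room-temperature competition with test compound. Values are % Ctrl at the tested concentration, lower meaning tighter binding.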

[2] = biological target: T2, kinases (Homo sapiens, UniProt P00519, E255K); settings: target ABL1(E255K)-phosphorylated; 1 μM
T2 construct: purchased Eurofins/DiscoveRx; host or cells: E. coli BL21-derived host (T7 phage display) for most kinases; HEK-293 for the rest
How it was run: as §1

[3] = biological target: T3, kinases (Homo sapiens, UniProt P00519, Q252H); settings: 1 μM; for % Ctrl, ABL1(Q252H)-nonphosphorylated: target ABL1(Q252H)-nonphosphorylated; for % Ctrl, ABL1(Q252H)-phosphorylated: target ABL1(Q252H)-phosphorylated
T3 construct: purchased Eurofins/DiscoveRx; host or cells: E. coli BL21-derived host (T7 phage display) for most kinases; HEK-293 for the rest
How it was run: as §1

[4] = biological target: T4, kinases (Homo sapiens, UniProt P00519, T315I); settings: 1 μM; for % Ctrl, ABL1(T315I)-nonphosphorylated: target ABL1(T315I)-nonphosphorylated; for % Ctrl, ABL1(T315I)-phosphorylated: target ABL1(T315I)-phosphorylated
T4 construct: purchased Eurofins/DiscoveRx; host or cells: E. coli BL21-derived host (T7 phage display) for most kinases; HEK-293 for the rest
How it was run: as §1

[5] = biological target: T5, kinases (Homo sapiens, UniProt P00519, Y253F); settings: target ABL1(Y253F)-phosphorylated; 1 μM
T5 construct: purchased Eurofins/DiscoveRx; host or cells: E. coli BL21-derived host (T7 phage display) for most kinases; HEK-293 for the rest
How it was run: as §1

[6] = biological target: T6, kinases (Homo sapiens, UniProt P00533, L858R); settings: target EGFR(L858R); 1 μM
T6 construct: purchased Eurofins/DiscoveRx; host or cells: E. coli BL21-derived host (T7 phage display) for most kinases; HEK-293 for the rest
How it was run: as §1

[7] = biological target: T7, kinases (Homo sapiens, UniProt P00533, L858R/T790M); settings: target EGFR(L858R, T790M); 1 μM
T7 construct: purchased Eurofins/DiscoveRx; host or cells: E. coli BL21-derived host (T7 phage display) for most kinases; HEK-293 for the rest
How it was run: as §1

[8] = biological target: T8, kinases (Homo sapiens, UniProt P07949, V804M); settings: target RET(V804M); 1 μM
T8 construct: purchased Eurofins/DiscoveRx; host or cells: E. coli BL21-derived host (T7 phage display) for most kinases; HEK-293 for the rest
How it was run: as §1

[9] = biological target: T9, kinases (Homo sapiens, UniProt P10721, D816V); settings: target KIT(D816V); 1 μM
T9 construct: purchased Eurofins/DiscoveRx; host or cells: E. coli BL21-derived host (T7 phage display) for most kinases; HEK-293 for the rest
How it was run: as §1

[10] = biological target: T10, kinases (Homo sapiens, UniProt P10721, T670I/V559D); settings: target KIT(V559D, T670I); 1 μM
T10 construct: purchased Eurofins/DiscoveRx; host or cells: E. coli BL21-derived host (T7 phage display) for most kinases; HEK-293 for the rest
How it was run: as §1

[11] = biological target: T11, kinases (Homo sapiens, UniProt P10721, V559D); settings: target KIT(V559D); 1 μM
T11 construct: purchased Eurofins/DiscoveRx; host or cells: E. coli BL21-derived host (T7 phage display) for most kinases; HEK-293 for the rest
How it was run: as §1

[12] = biological target: T12, kinases (Homo sapiens, UniProt P17948); settings: target FLT1; 1 μM
T12 construct: purchased Eurofins/DiscoveRx; host or cells: E. coli BL21-derived host (T7 phage display) for most kinases; HEK-293 for the rest
How it was run: as §1

[13] = biological target: T13, kinases (Homo sapiens, UniProt P35916); settings: target FLT4; 1 μM
T13 construct: purchased Eurofins/DiscoveRx; host or cells: E. coli BL21-derived host (T7 phage display) for most kinases; HEK-293 for the rest
How it was run: as §1

[14] = biological target: T14, kinases (Homo sapiens, UniProt P36888, D835Y); settings: target FLT3(D835Y); 1 μM
T14 construct: purchased Eurofins/DiscoveRx; host or cells: E. coli BL21-derived host (T7 phage display) for most kinases; HEK-293 for the rest
T14 sequence (P36888 27-993 D835Y): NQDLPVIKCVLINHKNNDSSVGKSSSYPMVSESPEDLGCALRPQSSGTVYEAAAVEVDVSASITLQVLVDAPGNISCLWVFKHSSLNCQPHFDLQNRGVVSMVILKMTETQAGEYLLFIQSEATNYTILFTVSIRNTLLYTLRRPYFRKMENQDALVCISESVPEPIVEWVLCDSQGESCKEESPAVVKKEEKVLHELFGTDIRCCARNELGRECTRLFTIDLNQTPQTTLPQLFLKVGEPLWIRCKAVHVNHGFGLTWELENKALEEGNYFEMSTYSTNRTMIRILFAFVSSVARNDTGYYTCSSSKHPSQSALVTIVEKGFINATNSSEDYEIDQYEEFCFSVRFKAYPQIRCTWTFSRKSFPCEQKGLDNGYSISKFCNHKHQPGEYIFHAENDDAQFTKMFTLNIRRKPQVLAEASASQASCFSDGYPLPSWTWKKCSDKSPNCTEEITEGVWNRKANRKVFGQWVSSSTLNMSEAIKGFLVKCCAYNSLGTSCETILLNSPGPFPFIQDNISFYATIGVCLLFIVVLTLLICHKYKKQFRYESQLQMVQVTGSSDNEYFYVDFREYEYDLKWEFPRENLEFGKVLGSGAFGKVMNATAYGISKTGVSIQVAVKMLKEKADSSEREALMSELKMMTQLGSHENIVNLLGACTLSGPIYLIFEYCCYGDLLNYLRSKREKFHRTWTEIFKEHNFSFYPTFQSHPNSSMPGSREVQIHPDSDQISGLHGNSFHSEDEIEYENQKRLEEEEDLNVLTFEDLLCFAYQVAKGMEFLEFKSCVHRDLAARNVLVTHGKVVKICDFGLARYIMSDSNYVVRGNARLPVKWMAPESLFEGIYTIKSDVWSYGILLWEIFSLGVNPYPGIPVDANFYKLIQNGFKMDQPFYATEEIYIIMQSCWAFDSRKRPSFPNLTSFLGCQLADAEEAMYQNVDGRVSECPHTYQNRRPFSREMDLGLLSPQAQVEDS
How it was run: as §1

[15] = biological target: T15, kinases (Homo sapiens, UniProt P42684); settings: target ABL2; 1 μM
T15 construct: purchased Eurofins/DiscoveRx; host or cells: E. coli BL21-derived host (T7 phage display) for most kinases; HEK-293 for the rest
How it was run: as §1

T10 sequence (P10721 26-976 V559D/T670I): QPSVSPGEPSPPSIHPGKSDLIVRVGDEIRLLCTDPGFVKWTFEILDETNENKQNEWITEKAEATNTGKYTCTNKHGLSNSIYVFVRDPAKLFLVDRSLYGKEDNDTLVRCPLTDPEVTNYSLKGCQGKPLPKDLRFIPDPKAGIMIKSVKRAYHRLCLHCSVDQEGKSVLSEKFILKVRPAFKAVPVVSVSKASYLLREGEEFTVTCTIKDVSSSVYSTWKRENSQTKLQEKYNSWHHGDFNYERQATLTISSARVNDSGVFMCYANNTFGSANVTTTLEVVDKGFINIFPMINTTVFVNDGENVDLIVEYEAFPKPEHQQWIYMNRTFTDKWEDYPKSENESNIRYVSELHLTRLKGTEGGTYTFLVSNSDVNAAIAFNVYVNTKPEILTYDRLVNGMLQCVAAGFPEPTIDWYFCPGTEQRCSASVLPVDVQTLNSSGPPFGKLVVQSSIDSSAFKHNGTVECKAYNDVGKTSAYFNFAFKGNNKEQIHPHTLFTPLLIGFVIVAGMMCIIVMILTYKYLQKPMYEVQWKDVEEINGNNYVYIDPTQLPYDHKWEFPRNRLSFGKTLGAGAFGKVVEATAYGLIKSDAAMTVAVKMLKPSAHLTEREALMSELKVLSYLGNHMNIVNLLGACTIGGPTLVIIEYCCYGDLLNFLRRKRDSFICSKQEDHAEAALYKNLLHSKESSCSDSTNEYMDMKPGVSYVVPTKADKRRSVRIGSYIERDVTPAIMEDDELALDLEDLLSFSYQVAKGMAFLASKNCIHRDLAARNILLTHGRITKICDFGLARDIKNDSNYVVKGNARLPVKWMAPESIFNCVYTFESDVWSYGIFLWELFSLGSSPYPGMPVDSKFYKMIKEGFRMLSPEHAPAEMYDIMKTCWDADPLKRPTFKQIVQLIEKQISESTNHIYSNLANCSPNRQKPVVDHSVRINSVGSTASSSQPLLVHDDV
T15 sequence (P42684 whole entry): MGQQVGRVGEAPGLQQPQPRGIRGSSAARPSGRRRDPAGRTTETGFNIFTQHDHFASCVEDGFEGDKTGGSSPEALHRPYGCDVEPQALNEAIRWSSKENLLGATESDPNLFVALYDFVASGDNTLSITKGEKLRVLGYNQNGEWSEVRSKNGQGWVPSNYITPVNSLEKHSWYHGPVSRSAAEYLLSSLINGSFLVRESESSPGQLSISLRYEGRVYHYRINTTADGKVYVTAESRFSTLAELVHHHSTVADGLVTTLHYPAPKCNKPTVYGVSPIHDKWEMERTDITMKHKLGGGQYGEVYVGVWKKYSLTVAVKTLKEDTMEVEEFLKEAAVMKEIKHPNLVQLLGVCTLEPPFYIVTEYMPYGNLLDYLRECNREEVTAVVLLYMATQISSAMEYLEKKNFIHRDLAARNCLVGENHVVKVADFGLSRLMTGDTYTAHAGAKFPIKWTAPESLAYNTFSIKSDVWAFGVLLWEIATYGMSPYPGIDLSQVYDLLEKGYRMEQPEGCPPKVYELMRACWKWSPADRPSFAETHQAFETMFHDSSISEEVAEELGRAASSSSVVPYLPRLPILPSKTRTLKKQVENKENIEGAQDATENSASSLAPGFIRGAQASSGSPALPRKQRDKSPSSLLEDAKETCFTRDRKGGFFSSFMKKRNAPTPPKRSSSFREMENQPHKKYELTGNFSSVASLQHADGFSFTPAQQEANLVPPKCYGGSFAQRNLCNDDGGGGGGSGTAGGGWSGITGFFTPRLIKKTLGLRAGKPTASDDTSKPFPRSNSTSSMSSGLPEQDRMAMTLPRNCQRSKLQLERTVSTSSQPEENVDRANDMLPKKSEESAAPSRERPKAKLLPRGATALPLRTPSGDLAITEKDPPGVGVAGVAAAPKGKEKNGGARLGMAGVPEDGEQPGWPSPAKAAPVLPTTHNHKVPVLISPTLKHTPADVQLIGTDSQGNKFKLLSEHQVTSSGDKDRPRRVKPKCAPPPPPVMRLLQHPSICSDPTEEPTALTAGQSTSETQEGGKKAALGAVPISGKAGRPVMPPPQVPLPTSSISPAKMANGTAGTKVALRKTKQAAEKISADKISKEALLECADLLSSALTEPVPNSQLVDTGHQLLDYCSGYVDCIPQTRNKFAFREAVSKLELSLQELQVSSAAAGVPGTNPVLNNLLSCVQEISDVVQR
T13 sequence (P35916 25-1363): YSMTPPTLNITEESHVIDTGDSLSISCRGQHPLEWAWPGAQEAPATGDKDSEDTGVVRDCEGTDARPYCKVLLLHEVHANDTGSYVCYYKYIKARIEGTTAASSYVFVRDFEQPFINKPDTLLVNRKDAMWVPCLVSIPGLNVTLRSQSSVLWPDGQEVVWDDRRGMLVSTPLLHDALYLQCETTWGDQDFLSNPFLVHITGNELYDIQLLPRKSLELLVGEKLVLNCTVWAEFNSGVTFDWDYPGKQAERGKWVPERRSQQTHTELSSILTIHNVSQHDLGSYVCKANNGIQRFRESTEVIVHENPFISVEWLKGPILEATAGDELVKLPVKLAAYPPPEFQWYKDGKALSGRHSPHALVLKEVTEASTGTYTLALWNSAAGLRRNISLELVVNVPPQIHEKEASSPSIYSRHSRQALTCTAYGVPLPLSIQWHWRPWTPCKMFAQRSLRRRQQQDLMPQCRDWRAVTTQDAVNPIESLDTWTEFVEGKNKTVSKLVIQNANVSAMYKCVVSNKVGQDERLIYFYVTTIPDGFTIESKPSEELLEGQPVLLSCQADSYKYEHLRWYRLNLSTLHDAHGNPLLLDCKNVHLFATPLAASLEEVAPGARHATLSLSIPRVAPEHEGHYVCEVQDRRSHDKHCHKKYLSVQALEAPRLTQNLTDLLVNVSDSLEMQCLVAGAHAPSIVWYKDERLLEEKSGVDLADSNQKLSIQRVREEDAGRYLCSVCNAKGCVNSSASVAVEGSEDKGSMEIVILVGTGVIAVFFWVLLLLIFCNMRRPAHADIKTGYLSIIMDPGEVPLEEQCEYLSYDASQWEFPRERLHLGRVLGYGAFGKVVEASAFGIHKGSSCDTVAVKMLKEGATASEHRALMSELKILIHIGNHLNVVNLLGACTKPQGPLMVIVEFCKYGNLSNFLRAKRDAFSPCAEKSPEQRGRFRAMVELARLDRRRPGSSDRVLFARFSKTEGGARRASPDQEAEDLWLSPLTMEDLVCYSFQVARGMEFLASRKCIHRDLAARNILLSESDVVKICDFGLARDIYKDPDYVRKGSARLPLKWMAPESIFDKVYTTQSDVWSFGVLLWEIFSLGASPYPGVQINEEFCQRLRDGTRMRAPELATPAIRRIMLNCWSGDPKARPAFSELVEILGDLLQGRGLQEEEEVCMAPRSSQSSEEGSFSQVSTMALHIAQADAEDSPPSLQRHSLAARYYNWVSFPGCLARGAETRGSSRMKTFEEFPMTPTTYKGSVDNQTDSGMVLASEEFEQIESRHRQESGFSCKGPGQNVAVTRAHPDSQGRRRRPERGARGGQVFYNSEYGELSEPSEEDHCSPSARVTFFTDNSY
T9 sequence (P10721 26-976 D816V): as the sequence (P10721 26-976 V559D/T670I) above, with D534V, I645T, D791V counted along it
T8 sequence (P07949 29-1114 V804M): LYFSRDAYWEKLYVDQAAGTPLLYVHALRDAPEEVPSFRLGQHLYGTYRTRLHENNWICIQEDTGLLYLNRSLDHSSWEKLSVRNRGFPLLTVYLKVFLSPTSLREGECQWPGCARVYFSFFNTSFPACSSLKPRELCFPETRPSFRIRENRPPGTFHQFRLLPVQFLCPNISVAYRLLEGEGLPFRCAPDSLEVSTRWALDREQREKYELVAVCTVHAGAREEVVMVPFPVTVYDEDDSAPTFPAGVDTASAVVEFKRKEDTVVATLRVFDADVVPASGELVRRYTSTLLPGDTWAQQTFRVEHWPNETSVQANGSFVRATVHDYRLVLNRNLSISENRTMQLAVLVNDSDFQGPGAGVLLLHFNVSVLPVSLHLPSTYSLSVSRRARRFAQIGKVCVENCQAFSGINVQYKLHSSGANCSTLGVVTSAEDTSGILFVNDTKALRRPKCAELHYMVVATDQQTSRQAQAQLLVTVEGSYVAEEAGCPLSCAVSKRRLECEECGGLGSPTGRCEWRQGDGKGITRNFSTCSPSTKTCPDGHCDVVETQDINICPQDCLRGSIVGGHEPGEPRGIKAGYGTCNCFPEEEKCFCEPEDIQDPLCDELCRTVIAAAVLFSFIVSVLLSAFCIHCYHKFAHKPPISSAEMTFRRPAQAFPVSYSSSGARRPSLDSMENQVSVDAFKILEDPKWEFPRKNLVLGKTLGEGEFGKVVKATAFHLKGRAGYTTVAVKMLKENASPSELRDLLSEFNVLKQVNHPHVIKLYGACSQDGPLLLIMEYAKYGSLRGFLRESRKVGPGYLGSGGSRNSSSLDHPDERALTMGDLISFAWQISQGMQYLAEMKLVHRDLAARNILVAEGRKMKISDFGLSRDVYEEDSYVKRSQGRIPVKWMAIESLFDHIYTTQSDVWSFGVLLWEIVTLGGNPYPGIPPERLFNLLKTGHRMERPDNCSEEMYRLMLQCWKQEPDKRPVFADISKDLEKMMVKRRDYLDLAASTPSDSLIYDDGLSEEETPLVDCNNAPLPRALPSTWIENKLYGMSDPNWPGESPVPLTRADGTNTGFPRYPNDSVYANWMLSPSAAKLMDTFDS
T11 sequence (P10721 26-976 V559D): as the sequence (P10721 26-976 V559D/T670I) above, with I645T counted along it

| SMILES | % Ctrl, ABL1-nonphosphorylated [1] [% Ctrl] | % Ctrl, ABL1-phosphorylated [1] [% Ctrl] | % Ctrl, ABL1(E255K)-phosphorylated [2] [% Ctrl] | % Ctrl, ABL1(Q252H)-nonphosphorylated [3] [% Ctrl] | % Ctrl, ABL1(Q252H)-phosphorylated [3] [% Ctrl] | % Ctrl, ABL1(T315I)-nonphosphorylated [4] [% Ctrl] | % Ctrl, ABL1(T315I)-phosphorylated [4] [% Ctrl] | % Ctrl, ABL1(Y253F)-phosphorylated [5] [% Ctrl] | % Ctrl, EGFR(L858R) [6] [% Ctrl] | % Ctrl, EGFR(L858R, T790M) [7] [% Ctrl] | % Ctrl, RET(V804M) [8] [% Ctrl] | % Ctrl, KIT(D816V) [9] [% Ctrl] | % Ctrl, KIT(V559D, T670I) [10] [% Ctrl] | % Ctrl, KIT(V559D) [11] [% Ctrl] | % Ctrl, FLT1 [12] [% Ctrl] | % Ctrl, FLT4 [13] [% Ctrl] | % Ctrl, FLT3(D835Y) [14] [% Ctrl] | % Ctrl, ABL2 [15] [% Ctrl] |
| --- | --- | --- | --- | --- | --- | --- | --- | --- | --- | --- | --- | --- | --- | --- | --- | --- | --- | --- |
| Cc1cc2c([nH]1)/C=C1\C(=O)Nc3cc(Cl)c(cc31)OCCO[C@@H](C(=O)N1CCN(C)CC1)CN(C)C2=O [Ex. 138, [7R,16a(17)Z]-19-chloro-2,5-dimethyl-7-(4-methylpipearazine-1-carbonyl)-6,7,9,10-tetrahydro-1H-12,14-(ethanediylidene)dipyrrolo[3,2-i:3′,4′-l][1,4,7]dioxazacyclopentadecine-4,16(5H,15H)-dione] | 79 | 100 | 61 | 100 | 98 | 87 | 76 | 91 | 78 | 82 | 81 | 100 | 73 | 97 | 96 | 97 | 45 | 98 |
| Cc1cc2c([nH]1)/C=C1\C(=O)Nc3ccc(cc31)-c1c(noc1C)CNCCN(C)C2=O [Ex. 139, [3a(4)Z]-6,9,16-trimethyl-10,11,12,13-tetrahydro-2H-1,17-(ethanediylidene)[1,2]oxazolo[4,3-m]dipyrrolo[3,2-f:3′,4′-i][1,4]diazacyclopentadecine-3,8(5H,9H)-dione] | 17 | 9.8 | 4.7 | 7.8 | 5.1 | 0.1 | 3 | 11 | 80 | 17 | 23 | 63 | 69 | 91 | 65 | 23 | 2.5 | 70 |
| CN1CCOCCOc2cc3c(cc2Cl)NC(=O)/C3=C\c2[nH]ccc2C1=O [Ex. 143, [16a(17)Z]-19-chloro-2,5-dimethyl-6,7,9,10-tetrahydro-1H-12,14-(ethanediylidene)dipyrrolo[3,2-i:3′,4′-l][1,4,7]oxathiazacyclopentadecine-4,16(5H,15H)-dione] | 6 | 11 | 6.4 | 4.1 | 5.2 | 42 | 27 | 9.1 | 86 | 75 | 31 | 34 | 1.6 | 5.4 | 11 | 39 | 3.1 | 40 |
| Cc1cc2c([nH]1)/C=C1\C(=O)Nc3ccc(cc31)-c1c(C)nn(C)c1COCCN(C)C2=O [Ex. 146, [3a(4)Z]-6,9,14,16-tetramethyl-10,11,13,14-tetrahydro-2H-1,17-(ethanediylidene)pyrazolo[4,3-m]dipyrrolo[3,2-f:3′,4′-i][1,4]oxazacyclopentadecine-3,8(5H,9H)-dione] | 64 | 100 | 57 | 74 | 93 | 64 | 34 | 89 | 88 | 43 | 12 | 80 | 75 | 75 | 100 | 78 | 22 | 83 |

Next, values leading:

| % Ctrl, ABL1-nonphosphorylated [1] [% Ctrl] | % Ctrl, ABL1-phosphorylated [1] [% Ctrl] | % Ctrl, ABL1(E255K)-phosphorylated [2] [% Ctrl] | % Ctrl, ABL1(Q252H)-nonphosphorylated [3] [% Ctrl] | % Ctrl, ABL1(Q252H)-phosphorylated [3] [% Ctrl] | % Ctrl, ABL1(T315I)-nonphosphorylated [4] [% Ctrl] | % Ctrl, ABL1(T315I)-phosphorylated [4] [% Ctrl] | % Ctrl, ABL1(Y253F)-phosphorylated [5] [% Ctrl] | % Ctrl, EGFR(L858R) [6] [% Ctrl] | % Ctrl, EGFR(L858R, T790M) [7] [% Ctrl] | % Ctrl, RET(V804M) [8] [% Ctrl] | % Ctrl, KIT(D816V) [9] [% Ctrl] | % Ctrl, KIT(V559D, T670I) [10] [% Ctrl] | % Ctrl, KIT(V559D) [11] [% Ctrl] | % Ctrl, FLT1 [12] [% Ctrl] | % Ctrl, FLT4 [13] [% Ctrl] | % Ctrl, FLT3(D835Y) [14] [% Ctrl] | % Ctrl, ABL2 [15] [% Ctrl] | SMILES |
| --- | --- | --- | --- | --- | --- | --- | --- | --- | --- | --- | --- | --- | --- | --- | --- | --- | --- | --- |
| 82 | 82 | 95 | 93 | 100 | 93 | 83 | 100 | 77 | 83 | 68 | 89 | 97 | 88 | 100 | 95 | 67 | 95 | Cc1nn(C)c2c1-c1ccc3c(c1)/C(=C/c1[nH]ccc1C(=O)N(C)CCCO2)C(=O)N3 [Ex. 150, [3a(4)Z]-9,14,16-trimethyl-10,11,13,14-tetrahydro-2H-1,17-(ethanediylidene)pyrazolo[4,3-m]dipyrrolo[3,2-f:3′,4′-i][1,4]oxazacyclopentadecine-3,8(5H,9H)-dione] |
| 1.3 | 18 | 8.4 | 1.8 | 7.9 | 17 | 25 | 13 | 86 | 79 | 41 | 6.8 | 0.3 | 0.3 | 3.5 | 11 | 1.7 | 35 | CN1CCSCCOc2cc3c(cc2Cl)NC(=O)/C3=C\c2[nH]ccc2C1=O [Ex. 153] |

Reference: patent publication US20230257396A1, “MACROCYCLES AND THEIR USE” (BLOSSOMHILL THERAPEUTICS, INC., priority 2020, published 2023)
